Results taken from US20030100605A1, “Methods of treating cancer with angiogenesis inhibitors” (priority 2001, published 2003).

Tests used:
[1] = test system: human hematopoietic progenitors; experiment: In vitro bone marrow culture, colony formation in methylcellulose; assay type: cell-based
Experimental: In vitro bone marrow culture. Light density cells separated by density gradient centrifugation (Lymphocyte Separation Medium, ICN Pharmaceutical, Costa Mesa, Calif.) from normal human BM donors were plated in methylcellulose medium with recombinant cytokines. This medium, MethoCult GF (Stem Cell Technologies, Vancouver, Canada), contains stem cell factor 50 ng/ml, GM-CSF 10 ng/ml, IL-3 10 ng/ml and erythropoietin 3 units/ml. 5×10^4 BM cells/dish were cultured with TNP-470 at concentrations ranging from 1 mcg/ml to […], with duplicate cultures at each dose. The plates were scored after 14 days of culture, enumerating colony-forming unit granulocyte/macrophage (CFU-GM), CFU-mix, CFU-erythrocyte and burst-forming unit erythrocyte (CFU-E and BFU-E).
Effect of TNP-470 on bone marrow colony-forming cells. Although hematologic toxicity has not been described in the TNP-470 phase I trials (24, 25), there is one report of in vitro evidence of BM toxicity (16). In order to confirm this finding, we investigated the effect of relatively high concentrations of TNP-470 (0-100 μg/ml) on growth of human hematopoietic progenitors in standard methylcellulose culture. […] Although this assay is not necessarily predictive of in vivo BM toxicity, the result emphasizes the need to develop a pre-clinical model of stem cell transplantation to assess the effect of AIs on engraftment.

[2] = Recovery of peripheral blood counts and marrow cellularity after stem cell rescue; assay type: in vivo, FVB mice
Experimental: (§1) Compound (drug). TNP-470 was provided by TAP Pharmaceuticals (Deerfield, Ill.). Prior to use, TNP-470 was reconstituted in sterile saline, aliquoted and stored at −80° C. TNP-470 was used at a dose of 20-100 mg/kg given SQ three times per week beginning at day 0 or at a dose of 10-20 mg/kg/week given by continuous intraperitoneal infusion using an Alzet infusion pump (Alza Co., Palo Alto, Calif.). The continuous TNP-470 infusion began on the day prior to transplant to allow for pump implantation (see below).
Alzet infusion pump placement. Using sterile technique following anesthesia, a 1 cm midline abdominal incision was made and 14 day Alzet micro-osmotic pumps (0.25 μl/hr, model 1002) containing either TNP-470 or saline were placed intraperitoneally. The peritoneum and skin were then secured separately using 4.0 vicryl suture. The animals were allowed to recover overnight and then subjected to TBI and stem cell infusion on the following day.
Analysis of engraftment. […] Following cervical dislocation, BM and splenocytes were collected from recipient mice. Analysis was performed after red cell lysis with NH4Cl. For flow cytometric analysis of lymphoid engraftment, Tg IgM expressed only in B cells derived from the donor was detected by antibodies recognizing human IgM (RAHM; Jackson ImmunoResearch, West Grove, Pa.) and mouse CD45R (B220, Pharmingen, Torreyana, Calif.) in a two-color protocol on a FACS Caliber cytometer (Becton-Dickinson, Franklin Lakes, N.J.). Splenocytes from untransplanted Tg− and Tg+ mice provided negative and positive controls, respectively. Lymphoid engraftment was defined as the percentage of lymphoid cells in spleen and BM that were B220/RAHM positive. In addition to flow cytometry, genomic DNA from tail snips, blood, BM, and splenocytes was analyzed by PCR for the presence of the transgene, using a procedure and primers previously reported (15). The transgene was detectable by PCR in all donor-derived cells in the recipient, while the tail snips of Tg− mice provided a negative control. Genomic DNA was also isolated from splenic and peripheral blood T cells. Splenic T cells were isolated using the Cellect T isolation column (Biotex, Edmonton, Canada) according to the manufacturer's protocol. Peripheral blood T cells were sorted on the FACS Vantage (Becton-Dickson) after staining with antibodies recognizing mouse CD3 (Pharmingen). Recovery of peripheral blood counts was also analyzed. Blood was collected from cardiac puncture and placed in EDTA tubes (Becton-Dickson). Analysis was then performed with a HemeVet (CDC Technologies) instrument using mouse-specific parameters. Hemoglobin was measured and white blood cells (WBC) and platelets were enumerated.

[3] = Survival and toxicity after TBI and stem cell rescue in the mouse stem cell transplant model; assay type: in vivo, FVB mice
Source text: Donors, recipients and preparative regimen. Transgenic mice expressing a human IgM Tg in the FVB background were used as the donor source of bone marrow stem cells for transplantation. The FVB strain of inbred mice is frequently utilized in the generation of transgenic animals. Marrow was collected from Tg+ mice from femurs flushed with sterile PBS. Recipients were FVB mice (Jackson Laboratory, Bar Harbor, Me.) or Tg negative littermates of the Tg positive donors, treated in groups of 5-8 animals/intervention. Recipients received total body irradiation (TBI) in an M38-1 Irradiator (Isomedix) at a dose rate of 2.7 Gy/min in a mixed/split fashion with a 3 hour interfraction interval to allow a higher dose of radiation without significant gastrointestinal toxicity. After completion of TBI, mice received stem cells via tail vein injection. The mice were maintained in a temperature controlled humidified area in autoclaved microisolator cages and fed ad libitum and provided acidified water. Mice were assessed three times weekly after stem cell infusion. These studies were approved by the Animal Care and Use Committee of the Children's Hospital of Philadelphia.
as §1
Effect of TNP-470 on engraftment. Several dose levels of TNP-470 were explored to assess any effect on BM engraftment and engraftment kinetics. Immediately following lethal irradiation and tail vein injection of Tg+ BM cells, recipient mice were given either TNP-470 or saline starting on day 0. Dose schedules were also varied from a single dose at the time of stem cell infusion to an initial dose on day 0 followed by administration of TNP-470 or saline 3 times a week (Table 3). Mice were initially sacrificed on days 28-32 at all dose levels. Comparative kinetics were then further analyzed by sacrificing groups of mice at day 21, day 24, and day 28 at dose level 3.

[4] = cited from earlier work
neuroblastoma cell lines = settings: first administered ten days after inoculation with two different neuroblastoma cell lines; cited from earlier work

## CO[C@@H]1[C@H](OC(=O)NC(=O)CCl)CC[C@@]2(CO2)[C@H]1[C@]1(C)O[C@@H]1CC=C(C)C [TNP-470]
[1]; Homo sapiens, 336 h, TNP-470 4 μg/ml, myeloid and erythroid colonies, 14 days culture
  inhibition at 4 µg/mL: > 80%
[1]; higher doses than 4 μg/ml (range 0-100 μg/ml)
  inhibition of colony-forming cells: complete inhibition
[2]; continuous infusion
  WBC: 6300 µL⁻¹
[2]; continuous infusion 10 mg/kg/week
  hemoglobin or platelet recovery versus control: no significant differences
[2]; day 28, dose level 3, femurs
  marrow cellularity versus controls: no difference
[2]; day 28 post BMT, continuous infusion IP via Alzet pump at 10 mg/kg/wk, mean ± SEM
  WBC: 6.3 ± 0.4 10^3/μL
[2]; day 28 post BMT, intermittent dosing, dose level 3, SQ three times/wk, mean ± SEM
  WBC: 3.6 ± 0.7 10^3/μL
[2]; intermittent (bolus) dosing
  hemoglobin or platelet count versus control: No statistical differences
[2]; intermittent TNP-470
  mean white blood cell count: 3600 µL⁻¹
[3]; all dose levels, after stem cell rescue
  Overall survival: 66%
[3]; dose level 1 (20 mg/kg on day 0 and then thrice weekly), at completion of the experiment
  survival rate: 57%
[3]; dose level 2 (100 mg/kg on day 0 only), day 28-32
  survived to experiment completion: 71%
[3]; dose level 4 (100 mg/kg 3×/week)
  weight loss: greater weight loss than the control animals
[3]; dose level 4 (100 mg/kg 3×/week), SQ
  skin irritation: evidence of skin irritation at the injection sites
[4]; Phase I trials
  hematologic toxicity in Phase I trials: no significant hematologic toxicity
[4]; one-hour intravenous infusions, three times a week, intermittent schedule
  maximal tolerated dose (MTD): 60 mg/m^2
Neuroblastoma cell lines
  effect on primary tumor and metastases: decreased the primary tumor volume and the size and number of lymph node and liver metastases
